Results from PubChem BioAssay (NCI).
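Protocol summary: plate cells (96-well), add compound at 5 concentrations, incubate 48 h, interpolate endpoints linearly. The concentration for 50% growth inhibition is given as GI50. TGI marks complete inhibition of growth.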

What was measured:
Experiment in all cases: NCI-60 cell line screen, 48 h
HCC-2998 colon = test system: HCC-2998 colon
UACC-257 melanoma = test system: UACC-257 melanoma
BT-549 breast = test system: BT-549 breast
EKVX NSCLC = test system: EKVX NSCLC
HCT-15 colon = test system: HCT-15 colon
SF-268 CNS = test system: SF-268 CNS
HL-60(TB) leukemia = test system: HL-60(TB) leukemia
A549 NSCLC = test system: A549 NSCLC
SF-539 CNS = test system: SF-539 CNS
IGROV1 ovarian = test system: IGROV1 ovarian

SMILES	GI50 (HCC-2998 colon)	TGI (HCC-2998 colon)	GI50 (UACC-257 melanoma)	TGI (UACC-257 melanoma)	GI50 (BT-549 breast)	TGI (BT-549 breast)	GI50 (EKVX NSCLC)	TGI (EKVX NSCLC)	GI50 (HCT-15 colon)	TGI (HCT-15 colon)	GI50 (SF-268 CNS)	TGI (SF-268 CNS)	GI50 (HL-60(TB) leukemia)	TGI (HL-60(TB) leukemia)	GI50 (A549 NSCLC)	TGI (A549 NSCLC)	GI50 (SF-539 CNS)	TGI (SF-539 CNS)	GI50 (IGROV1 ovarian)	TGI (IGROV1 ovarian)
COc1cc(OC)cc(-c2ccc(-c3ccc(C(=N)N)o3)o2)c1	2.05 µM	3.94 µM	2.41 µM	5.41 µM	6.91 µM	20.1 µM	5.09 µM	18.5 µM	3.18 µM	10.4 µM	3.4 µM	13.2 µM	1.9 µM	4.24 µM	3.78 µM	13.3 µM	1.83 µM	3.44 µM	2.97 µM	10.4 µM
O=C(NCCOCCOCCNc1cccc2c1C(=O)N(C1CCCNC1=O)C2=O)c1cc2c(o1)C(=O)c1ccccc1C2=O (configuration not stated)	2.01 µM	4.02 µM	1.45 µM	2.89 µM	1.59 µM	2.98 µM	2.88 µM	10.1 µM	2.06 µM	5.5 µM	2.39 µM	6.35 µM	2.38 µM	6.78 µM	2.11 µM	4.8 µM	1.75 µM	3.18 µM	1.99 µM	5.33 µM
O=C1c2c(c3c4ccccc4n(CCCCCCBr)c3c3[nH]c4ccccc4c23)C(=O)N1O	2.87 µM	12.5 µM	2.74 µM	6.04 µM	1.83 µM	6.53 µM	2.58 µM	9.57 µM	2.64 µM	11.2 µM	3.48 µM	18.3 µM	2.08 µM	4.63 µM	3.31 µM	12.1 µM	1.78 µM	3.77 µM	2.13 µM	9.38 µM
CC1OC(O[C@H]2C[C@@H](O)[C@]3(CO)[C@H]4[C@H](O)C[C@]5(C)[C@@H](C6=CC(=O)OC6)CC[C@]5(O)[C@@H]4CC[C@]3(O)C2)C(O)C(O)C1O (some centres not stated)	20.2 µM	36.6 µM	19.5 µM	39.2 µM	18 µM	32.7 µM	16.5 µM	30.5 µM	17.3 µM	31.9 µM	18.9 µM	33.5 µM	21 µM	41.6 µM	21.2 µM	39 µM	21.4 µM	39.5 µM	19.7 µM	36.7 µM
CNC(=O)OCc1c(COC(=O)NC)c(-c2ccc(Cl)c(Cl)c2)n2c1SCC2	–	30 µM	–	31.7 µM	6.23 µM	22.4 µM	–	72 µM	–	28.1 µM	–	32.9 µM	–	25.4 µM	–	> 88 µM	–	26.9 µM	3.16 µM	26.9 µM
O=C1/C(=C/c2ccc(Br)cc2)C=C(c2ccccc2)N1CCc1ccccc1	7.52 µM	> 100 µM	2.82 µM	18.7 µM	2.59 µM	9.06 µM	1.95 µM	19 µM	11.7 µM	> 100 µM	2.27 µM	16.3 µM	75.1 µM	> 100 µM	1.37 µM	11.9 µM	1.77 µM	5.57 µM	1.71 µM	12 µM
CC1CCC2(C(=O)O)CCC3(C)C(=CCC4C5(C)CC(O)C(O)C(C)(CO)C5C(O)CC43C)C2C1C (configuration not stated)	–	> 100 µM	–	> 100 µM	–	> 93.5 µM	–	> 100 µM	–	> 100 µM	–	> 87.2 µM	–	47.1 µM	–	> 100 µM	–	75.9 µM	–	35.9 µM
O=c1oc2ccc(F)cc2c(=O)n1-c1ccc(F)cc1F	3.9 µM	27.7 µM	2.29 µM	7.15 µM	2.53 µM	7.4 µM	2.54 µM	9.79 µM	3.36 µM	17.5 µM	3.34 µM	52.1 µM	2.68 µM	7.81 µM	3.35 µM	> 100 µM	3.31 µM	13.8 µM	3.01 µM	> 100 µM
N#Cc1ccc(C#Cc2ccccc2C#CCCCCO)cc1	18.5 µM	33.1 µM	17.3 µM	31.4 µM	14.7 µM	29.3 µM	17.9 µM	35.3 µM	15.6 µM	29 µM	18.9 µM	40.7 µM	23.7 µM	45.6 µM	14.4 µM	27.9 µM	17.5 µM	32 µM	13.6 µM	27.6 µM
O=C(O)CCCCC(CCSCc1ccccc1)SCc1ccccc1 (configuration not stated)	34.8 µM	> 100 µM	> 67.1 µM	> 100 µM	50.8 µM	> 100 µM	40.3 µM	> 100 µM	33.1 µM	> 100 µM	> 67.2 µM	> 100 µM	46.9 µM	> 100 µM	43.5 µM	> 100 µM	66.5 µM	> 100 µM	42.4 µM	> 100 µM
Cc1ccc(S(=O)(=O)N(CCOc2ccc(/C(N)=N/Cl)cc2)CCOc2ccc(/C(N)=N\Cl)cc2)cc1	18.2 µM	46.3 µM	23.3 µM	90.5 µM	14.1 µM	36.6 µM	18.4 µM	93.2 µM	> 100 µM	> 100 µM	5.76 µM	20 µM	7.65 µM	48.6 µM	4.88 µM	> 100 µM	11 µM	27.2 µM	11.7 µM	40.7 µM
